Patent publication US11897851B2, “Heterocyclic GLP-1 agonists” (Gasherbrum Bio, Inc., priority 2021, dated 2024)

Target: T1, GLP-1 Receptor (Homo sapiens, UniProt P43220)
T1 construct: host or cells: HEK293/GLP1R/CRE-LUC (HEK293/CRE-Luc stably expressing the GLP-1 receptor)
Experiment: GLP-1R agonist cAMP stimulation assay (HEK293/GLP1R/CRE-LUC cells, Cisbio cAMP dynamic 2 kit);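 also: compounds tested in half-log serial dilution, cAMP detected with cAMP-d2 and anti-cAMP cryptate antibody reagents after 1 h at room temperature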
Format: cell-based
Details: HEK293/CRE-Luc cell line stably expressing the GLP-1 Receptor; 1000 cells/well; 30 min at 37° C.; 0.5 mM IBMX, 0.1% BSA; read-out: GLP1R cAMP Stimulation DR: EC50

T1 sequence (P43220 24-463, species assumed): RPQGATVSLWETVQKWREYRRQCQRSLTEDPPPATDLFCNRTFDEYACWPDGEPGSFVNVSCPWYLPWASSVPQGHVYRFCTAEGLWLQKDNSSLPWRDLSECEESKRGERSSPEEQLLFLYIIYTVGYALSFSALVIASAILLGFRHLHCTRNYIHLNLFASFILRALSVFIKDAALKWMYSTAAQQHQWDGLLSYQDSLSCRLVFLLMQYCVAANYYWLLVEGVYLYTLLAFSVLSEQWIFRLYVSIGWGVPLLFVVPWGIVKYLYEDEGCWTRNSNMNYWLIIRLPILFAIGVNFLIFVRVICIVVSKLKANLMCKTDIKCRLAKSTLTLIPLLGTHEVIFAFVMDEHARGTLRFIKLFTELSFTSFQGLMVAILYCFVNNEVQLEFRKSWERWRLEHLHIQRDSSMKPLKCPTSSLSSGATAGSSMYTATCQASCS

| Compound | EC50 [nM] |
| --- | --- |
| C[C@@]1(c2ccc(Cl)cc2F)Oc2cccc(C3CCN(Cc4ncc(/C=C/C(=O)O)n4C[C@@H]4CCO4)CC3)c2O1 [Compound 135b, (E)-3-(2-((4-((R)-2-(4-chloro-2-fluorophenyl)-2-methylbenzo[d][1,3]dioxol-4-yl)piperidin-1-yl)methyl)-1-(((S)-oxetan-2-yl)methyl)-1H-imidazol-5-yl)acrylic acid] | 15 |
| CC1(c2ccc(Cl)cc2F)Oc2cccc(C3CCN(Cc4ncc(/C=C/C(=O)O)n4C[C@@H]4CCOC4)CC3)c2O1 (stereo partly drawn) [Compound 156, (E)-3-(2-((4-(2-(4-chloro-2-fluorophenyl)-2-methylbenzo[d][1,3]dioxol-4-yl)piperidin-1-yl)methyl)-1-(((S)-tetrahydrofuran-3-yl)methyl)-1H-imidazol-5-yl)acrylic acid] | 0.086 |
| CC1(c2ccc(Cl)cc2F)Oc2cccc(C3CCN(Cc4ncc(/C=C/C(=O)O)n4CC4CC4)CC3)c2O1 (centres unmarked) [Compound 162, (E)-3-(2-((4-(2-(4-chloro-2-fluorophenyl)-2-methylbenzo[d][1,3]dioxol-4-yl)piperidin-1-yl)methyl)-1-(cyclopropylmethyl)-1H-imidazol-5-yl)acrylic acid] | 0.14 |
| O=C(O)/C=C/c1nnc(CN2CCC(c3cccc(OCc4ccc(Cl)cc4F)n3)CC2)n1C[C@@H]1CCO1 [Compound 225a, (S,E)-3-(5-((4-(6-((4-chloro-2-fluorobenzyl)oxy)pyridin-2-yl)piperidin-1-yl)methyl)-4-(oxetan-2-ylmethyl)-4H-1,2,4-triazol-3-yl)acrylic acid] | 0.26 |
| Cn1c(C2CCC(C(=O)O)C2)cnc1CN1CCC(c2cccc3c2OC(C)(c2ccc(Cl)cc2F)O3)CC1 (centres unmarked) [Compound 247, 3-(2-((4-(2-(4-chloro-2-fluorophenyl)-2-methylbenzo[d][1,3]dioxol-4-yl)piperidin-1-yl)methyl)-1-methyl-1H-imidazol-5-yl)cyclopentane-1-carboxylic acid] | 310 |
| Cc1cc(-c2nnc(C(F)F)[nH]2)cnc1CN1CCC(c2cccc3c2OC(C)(c2ccc(Cl)cc2F)O3)CC1 (centres unmarked) [Compound 257, 2-({4-[2-(4-chloro-2-fluorophenyl)-2-methyl-2H-1,3-benzodioxol-4-yl]piperidin-1-yl}methyl)-5-[5-(difluoromethyl)-4H-1,2,4-triazol-3-yl]-3-methylpyridine] | 14 |
| C/C(=C\c1cnc(CN2CCC(c3cccc4c3O[C@@](C)(c3ccc(Cl)cc3F)O4)CC2)n1C[C@@H]1CCO1)C(=O)O (single isomer, unassigned) [Compound 131a] | 0.099 |
| CC1(c2ccc(Cl)cc2F)Oc2cccc(C3CCN(Cc4ncc(/C=C/C(=O)O)n4Cc4cccc(Cl)c4)CC3)c2O1 (centres unmarked) [Compound 150, (E)-3-(2-((4-(2-(4-chloro-2-fluorophenyl)-2-methylbenzo[d][1,3]dioxol-4-yl)piperidin-1-yl)methyl)-1-(3-chlorobenzyl)-1H-imidazol-5-yl)acrylic acid] | 0.054 |
| COc1cccc(Cn2c(/C=C/C(=O)O)cnc2CN2CCC(c3cccc4c3OC(C)(c3ccc(Cl)cc3F)O4)CC2)c1 (centres unmarked) [Compound 149, (E)-3-(2-((4-(2-(4-chloro-2-fluorophenyl)-2-methylbenzo[d][1,3]dioxol-4-yl)piperidin-1-yl)methyl)-1-(3-methoxybenzyl)-1H-imidazol-5-yl)acrylic acid] | 0.12 |
| CCn1cncc1Cn1c(CCC(=O)O)nnc1CN1CCC(c2cccc3c2OC[C@@H](c2ccc(Cl)cc2)O3)CC1 [Compound 246, (R)-3-(5-((4-(2-(4-chlorophenyl)-2,3-dihydrobenzo [b][1,4]dioxin-5-yl)piperidin-1-yl)methyl)-4-((1-ethyl-1H-imidazol-5-yl)methyl)-4H-1,2,4-triazol-3-yl)propanoic acid] | 0.38 |
| CCn1cncc1Cn1c(/C=C(\C)C(=O)O)cnc1CN1CCC(c2cccc3c2OC[C@@H](c2ccc(Cl)cc2)O3)CC1 [Compound 208a, (R,E)-3-(2-((4-(2-(4-chlorophenyl)-2,3-dihydrobenzo [b][1,4]dioxin-5-yl)piperidin-1-yl)methyl)-1-((1-ethyl-1H-imidazol-5-yl)methyl)-1H-imidazol-5-yl)-2-methylacrylic acid] | 0.011 |
| CCn1cncc1Cn1c(/C=C/C(=O)O)cnc1CN1CCC(c2cccc(OCc3ccc(Cl)cc3F)n2)CC1 [Compound 214, (E)-3-(2-((4-(6-((4-chloro-2-fluorobenzyl)oxy)pyridin-2-yl)piperidin-1-yl)methyl)-1-((1-ethyl-1H-imidazol-5-yl)methyl)-1H-imidazol-5-yl)acrylic acid] | 0.0032 |
| COc1nc(CCC(=O)O)ccc1CN1CCC(c2cccc(OCc3ccc(Cl)cc3F)n2)CC1 [Compound 124, 3-(5-((4-(6-((4-Chloro-2-fluorobenzyl)oxy)pyridin-2-yl)piperidin-1-yl)methyl)-6-methoxypyridin-2-yl)propanoic acid] | > 1000 |
| CC1(c2ccc(Cl)cc2F)Oc2cccc(C3CCN(Cc4ncc(/C=C/C(=O)O)n4C[C@H]4CCOC4)CC3)c2O1 (stereo partly drawn) [Compound 154, (E)-3-(2-((4-(2-(4-chloro-2-fluorophenyl)-2-methylbenzo[d][1,3]dioxol-4-yl)piperidin-1-yl)methyl)-1-(((R)-tetrahydrofuran-3-yl)methyl)-1H-imidazol-5-yl)acrylic acid] | 0.012 |
| CCn1cncc1Cn1c(/C=C(\C)C(=O)O)cnc1CN1CCC(c2cccc3c2O[C@](C)(c2ccc(Cl)cc2F)O3)CC1 [Compound 138b, (R,E)-3-(2-((4-(2-(4-chloro-2-fluorophenyl)-2-methylbenzo[d][1,3]dioxol-4-yl)piperidin-1-yl)methyl)-1-((1-ethyl-1H-imidazol-5-yl)methyl)-1H-imidazol-5-yl)-2-methylacrylic acid] | 0.66 |
| CCn1cncc1Cn1c(/C=C(\C)C(=O)O)cnc1CN1CCC(c2cccc(OCc3ccc(Cl)cc3F)n2)CC1 [Compound 219, (E)-3-(2-((4-(6-((4-chloro-2-fluorobenzyl)oxy)pyridin-2-yl)piperidin-1-yl)methyl)-1-((1-ethyl-1H-imidazol-5-yl)methyl)-1H-imidazol-5-yl)-2-methylacrylic acid] | 0.0069 |
| Cn1c(C(=O)O)cnc1CN1CCC(c2cccc(OCc3ccc(Cl)cc3F)n2)CC1 [Compound 101, 2-((4-(6-((4-chloro-2-fluorobenzyl)oxy)pyridin-2-yl)piperidin-1-yl)methyl)-1-methyl-1H-imidazole-5-carboxylic acid] | 227 |
| C[C@]1(c2ccc(Cl)cc2F)Oc2cccc(C3CCN(Cc4ncc(-c5nnc(C(F)(F)F)[nH]5)cc4CC4(C#N)CC4)CC3)c2O1 [Compound 258, 1-{[2-({4-[(2S)-2-(4-chloro-2-fluorophenyl)-2-methyl-2H-1,3-benzodioxol-4-yl]piperidin-1-yl}methyl)-5-[5-(trifluoromethyl)-4H-1,2,4-triazol-3-yl]pyridin-3-yl]methyl}cyclopropane-1-carbonitrile] | 0.0061 |
| C/C(=C\c1cnc(CN2CCC(c3cccc4c3O[C@](C)(c3ccc(Cl)cc3)O4)CC2)n1C[C@@H]1CCO1)C(=O)O [Compound 134b, (E)-3-(2-((4-((R)-2-(4-chlorophenyl)-2-methylbenzo[d][1,3]dioxol-4-yl)piperidin-1-yl)methyl)-1-(((S)-oxetan-2-yl)methyl)-1H-imidazol-5-yl)-2-methylacrylic acid] | 17 |
| CC1(c2ccc(Cl)cc2F)Oc2cccc(C3CCN(Cc4ncc(CCC(=O)O)n4CCOC(F)F)CC3)c2O1 (centres unmarked) [Compound 238, 3-(2-((4-(2-(4-chloro-2-fluorophenyl)-2-methylbenzo[d][1,3]dioxol-4-yl)piperidin-1-yl)methyl)-1-(2-(difluoromethoxy)ethyl)-1H-imidazol-5-yl)propanoic acid] | 0.43 |
| Cn1c(/C=C/C(=O)O)nnc1CN1CCC(c2cccc(OCc3ccc(Cl)cc3F)n2)CC1 [Compound 112, (E)-3-(5-((4-(6-((4-chloro-2-fluorobenzyl)oxy)pyridin-2-yl)piperidin-1-yl)methyl)-4-methyl-4H-1,2,4-triazol-3-yl)acrylic acid] | 2.01 |
| O=C(O)/C=C/c1cnc(CN2CCC(c3cccc4c3OC[C@@H](c3ccc(Cl)cc3)O4)CC2)n1Cc1ccccc1 [Compound 210a, (R,E)-3-(1-benzyl-2-((4-(2-(4-chlorophenyl)-2,3-dihydrobenzo[b][1,4]dioxin-5-yl)piperidin-1-yl)methyl)-1H-imidazol-5-yl)acrylic acid] | 0.43 |
| C[C@@H](Cn1c(/C=C/C(=O)O)cnc1CN1CCC(c2cccc3c2O[C@@](C)(c2ccc(Cl)cc2F)O3)CC1)OC(F)F [Compound 169a, (E)-3-(2-((4-((S)-2-(4-chloro-2-fluorophenyl)-2-methylbenzo[d][1,3]dioxol-4-yl)piperidin-1-yl)methyl)-1-((S)-2-(difluoromethoxy)propyl)-1H-imidazol-5-yl)acrylic acid] | 0.16 |
| CC1(c2ccc(Cl)cc2F)Oc2cccc(C3CCN(Cc4nc(/C=C/C(=O)O)cn4Cc4ccno4)CC3)c2O1 (centres unmarked) [Compound 182, (E)-3-(2-((4-(2-(4-chloro-2-fluorophenyl)-2-methylbenzo[d][1,3]dioxol-4-yl)piperidin-1-yl)methyl)-1-(isoxazol-5-ylmethyl)-1H-imidazol-4-yl)acrylic acid] | 93 |
| O=C(O)C1CC1c1ccc(CN2CCC(c3cccc(OCc4ccc(Cl)cc4F)n3)CC2)nc1 (centres unmarked) [Compound 126, 2-(6-((4-(6-((4-chloro-2-fluorobenzyl)oxy)pyridin-2-yl)piperidin-1-yl)methyl)pyridin-3-yl)cyclopropane-1-carboxylic acid] | 817 |
| CC(C)OCCn1c(/C=C/C(=O)O)cnc1CN1CCC(c2cccc3c2OC(C)(c2ccc(Cl)cc2F)O3)CC1 (centres unmarked) [Compound 158, (E)-3-(2-((4-(2-(4-chloro-2-fluorophenyl)-2-methylbenzo[d][1,3]dioxol-4-yl)piperidin-1-yl)methyl)-1-(2-isopropoxyethyl)-1H-imidazol-5-yl)acrylic acid] | 0.056 |
